The term inhibition in vivo denotes the drop in the measured response relative to a control, in per cent. A low value points to a weak effect.

Drawing on patent publication US5508424A, “4-arylisoindole analgesics” (Ortho Pharmaceutical Corporation, priority 1993, dated 1996), this text covers inhibition in vivo and ED50 for 19 molecules.

For the first assay, the system named is Acetylcholine-Bromide Induced Abdominal Constriction. The assay can be described thus: Mouse Acetylcholine Bromide-Induced Abdominal Constriction Assay. In kind it is in vivo. To be noted: Mus musculus, 0.5 h; @ 3 mpk/po; acetylcholine bromide 5.5 mg/kg i.p. 30 min after drug; % analgesia. How it is done: Mouse Acetylcholine Bromide-Induced Abdominal Constriction Assay
The mouse acetylcholine-induced abdominal constiction assay, as described by Collier et al. in Brit. J. Pharmacol. Chem. Ther., 32: 295-310, 1968, with minor modifications was used to assess analgesic potency of the compounds of formula (I). The test drugs or appropriate vehicle were administered orally (p.o.) and 30 minutes later the animal received an intraperitoneal (i.p.) injection of 5.5 mg/kg acetylcholine bromide (Matheson, Coleman and Bell, East Rutherford, N.J.). The mice were then placed in groups of three into glass bell jars and observed for a ten minute observation period for the occurrence of an abdominal constriction response (defined as a wave of constriction and elongation passing caudally along the abdominal wall, accompanied by a twisting of the trunk and followed by extension of the hind limbs). The percent inhibition of this response to a nociceptive stimulus (equated to % analgesia) was calculated as follows: The % Inhibition of response, i.e., % analgesia is equal to the difference between the No. of control animals response and the No. of drug-treated animals response times 100 divided by the No. of control animals responding.
At least 15 animals were used for control and in each of the drug treated groups. At least three doses were used to determine each dose response curve and ED50 (that dose which would produce 50% analgesia). The ED50 values and their 95% fiducial limits were determined by a computer assisted probit analysis.
The molecule `CN1C[C@H]2CCC[C@H](c3ccc(C(F)(F)F)cc3)[C@@H]2C1` (relative stereo) [Cp-17] registered an inhibition in vivo at 3 mg/kg of 33%.

The assay is the same for the next values; noted with them: Mus musculus, 0.5 h; @ 30 mpk/po; acetylcholine bromide 5.5 mg/kg i.p. 30 min after drug; % analgesia.
Consider `CN1C[C@@H]2CCC[C@@H](c3ccc(Br)cc3)[C@@H]2C1` (relative stereo) [Cp-34], for which the inhibition in vivo at 30 mg/kg was determined as 100%.

`FC(F)(F)c1ccc([C@H]2CCC[C@@H]3CN(CCC(c4ccccc4)c4ccccc4)C[C@H]32)cc1` (relative stereo) [Cp-22] displayed an inhibition in vivo at 30 mg/kg of 13.3%. Same read-out and setting: next, `CCCCN1CC2CCCC(c3cccc(C(F)(F)F)c3)C2C1` (stereo not shown) [Cp-18]: 66.7%; `COc1cccc([C@@H]2CCC[C@H]3CN(C)C[C@H]32)c1OC` (relative stereo) [Cp-8]: 78.8%. The same measure, in the same setting: next, `COc1cccc([C@@H]2CCC[C@@H]3CN(Cc4ccccc4)C[C@H]32)c1` (relative stereo) [Cp-6]: 13.3%; `COc1cccc([C@@H]2CCC[C@H]3CN(C)C[C@H]32)c1` (relative stereo) [Cp-1]: 30 to 40%; `CN1C[C@@H]2CCC[C@H](c3ccc(Cl)c(Cl)c3)[C@@H]2C1` (relative stereo) [Cp-46]: 100%.

The same assay, now with this note: Mus musculus; po; dose producing 50% analgesia, probit analysis; read-out: ED50.
With `CN1C[C@H]2CCC[C@@H](c3ccccc3)[C@@H]2C1` (relative stereo) [Cp-13], the ED50 came to 8.35 mg/kg. The same measure, in the same setting: for `CN1C[C@@H]2CCC[C@H](c3ccccc3)[C@@H]2C1` (relative stereo) [Cp-43] the value was 4.9 mg/kg; for `Cc1cccc([C@@H]2CCC[C@@H]3CN(C)C[C@H]32)c1` (relative stereo) [Cp-24, 3aα,7aβ Octahydro-2-methyl-4α-(3-methylphenyl)-1H-isoindole Monofumarate], 23.6 mg/kg. Same read-out and setting: for `CN1C[C@H]2CCC[C@H](c3ccc(Cl)c(Cl)c3)[C@@H]2C1` (relative stereo) [Cp-14] the value was 2.8 mg/kg; for `Clc1ccc([C@H]2CCC[C@H]3CNC[C@H]32)cc1Cl` (relative stereo) [Cp-35, 4β-(3,4-dichlorophenyl)-3aα,7aα-octahydro-1H-isoindole], 9.63 mg/kg. Turning to `CN1C[C@H]2CCC[C@@H](c3ccc(C(F)(F)F)cc3)[C@@H]2C1` (relative stereo) [Cp-16], the ED50 is 4.6 mg/kg.

As for `CN1C[C@H]2CCC[C@@H](c3cccc(C(F)(F)F)c3)[C@@H]2C1` (relative stereo) [Cp-7, 3aα, 4α,7aβ-Octahydro-2-methyl-4-(3-trifluoromethylphenyl)-1H-isoindole Monofumarate], the ED50 turned out to be 7.46 mg/kg. `CN1C[C@@H]2CCC[C@H](c3ccc(Br)cc3)[C@@H]2C1` (relative stereo) [Cp-44, 4β-bromophenyl-2-methyl-3aα,7aα-octahydro-1H-isoindole]: the ED50 is 9.15 mg/kg. For `CN1C[C@H]2CCC[C@@H](c3ccc(Cl)c(Cl)c3)[C@@H]2C1` (relative stereo) [Cp-15], the ED50 came to 7 mg/kg.

Still in this assay, the particulars now being: po; dose producing 50% analgesia, probit analysis.
In turn, `Cc1cccc(C2CCCC3CN(C)CC32)c1.O=C(O)/C=C/C(=O)O` (single isomer, unassigned; (-)) [Cp-24-, (-)3aα,7aβ Octahydro-2-methyl-4α-(3-methylphenyl)-1H-isoindole Monofumarate] registered an ED50 of 24.9 mpk. The same measure, in the same setting: next, `Cc1cccc([C@@H]2CCC[C@@H]3CN(C)C[C@@H]32)c1.O=C(O)/C=C/C(=O)O` [Cp-24+, (+)3aα,4α,7aβ Octahydro-2-methyl-4-(3-methylphenyl)-1H-isoindole Monofumarate]: 21.6 mpk.
